Test results: article PMC9020709, “Hepcidin is potential regulator for renin activity” (PLoS ONE, 2022)
“Also recorded” adds a separate entry of the source. Where no end group is shown, it is not given here.

Columns and labels:
[1] = test system: angiotensin-converting enzyme 1 (ACE1); assay: ACE1 inhibition screening kit (fluorometric); type: biochemical
Procedure: (§1) Activity measurements for all three enzymes (renin, ACE1 and ACE2) were carried out using commercial inhibition kits following manufacturer’s instructions. Screening kits were purchased from Biovision (Biovision, Inc. San Francisco, CA). Candidate inhibitors used were human hepcidin-25/LEAP-1 (disulfide bonds between Cys7–Cys23, Cys10–Cys13, Cys11–Cys19, and Cys14–Cys22, purity assessed by HPLC ≥ 98.0%) purchased from Peptides International (Peptides International Inc, Louisville, KY) as well as N-terminal part of hepcidin, Asp-Thr-His-Phe-Pro (hepcidin-5) synthetized by Proteogenix (Schiltigheim, France).
(§2) All kits included the enzyme, substrate, and enzyme inhibitor as negative control. […] DABCYL-EDANS is well-known FRET pair where fluorescence is quenched when peptide is uncleaved. Fluorescence signal is increased after peptide is cleaved and EDANS molecule is free in the solution. The fluorescence intensity was recorded and calculated as follows. […] Both candidate inhibitors were measured with final sample concentrations of 10 nM, 100 nM and 500 nM. […] Fluorescence measurement was performed using Perkin Elmer UV/VIS Envision multimode plate reader. […] Fluorescence was recorded every 60 s for 60 min at 37°C. […]
Briefly, ACE1 enzyme solution was added to a 96-well plate and each diluted candidate enzyme inhibitors were added. […] Fluorescence was recorded every 60s for 100 min at 37°C. […]

renin = assay: Renin inhibitor screening kit (fluorometric FRET, DABCYL-EDANS); type: biochemical; conditions: for Mean inhibitory effect on renin activity: 5 min pre-incubation at 37°C, read every 60 s for 60 min at 37°C, ex/em 328/552 nm; for Renin inhibition (in words): 10, 100 and 500 nM, in vitro, 37°C
Procedure: as §1
All kits included the enzyme, substrate, and enzyme inhibitor as negative control. The fluorophore labelled substate was cleaved by the enzyme. The used fluorophores were a synthetic o-aminobenzoyl peptide for ACE1, 7-Methoxycoumarin-4-acetic acid (MCA) for ACE2 and 5-((2-Aminoethyl)amino)naphthalene-1-sulfonic acid (EDANS) for renin. DABCYL-EDANS is well-known FRET pair where fluorescence is quenched when peptide is uncleaved. Fluorescence signal is increased after peptide is cleaved and EDANS molecule is free in the solution. The fluorescence intensity was recorded and calculated as follows. According to renin inhibitor screening kit instructions hepcidin-25 and hepcidin-5 were first pipetted to a black ForteBio’s 96-well plate. Renin enzyme solution was added and mixed. Both candidate inhibitors were measured with final sample concentrations of 10 nM, 100 nM and 500 nM. The plate was incubated for 5 min at 37°C. Finally, substrate solution was added into each well. Fluorescence measurement was performed using Perkin Elmer UV/VIS Envision multimode plate reader. Excitation and emission wavelengths were 328 and 552 nm, respectively. Fluorescence was recorded every 60 s for 60 min at 37°C. Inhibitory activity of renin was calculated as follows: Renininhibitoryactivity(%)=1−Activitywithsample/Activitywithoutsamplex100 where “Activity with sample” is the slope calculated from the linear range of the fluorescence plot at the presence of candidate inhibitor. Activity without the sample represents the slope without any sample in the well.
Mean enzyme inhibitory activities with the standard error of means were calculated at different concentrations. Data analysis was performed using Microsoft Office 365 ProPlus Excel version 1902 for Windows. The hepcidin–renin binding data was treated as follows: Background was subtracted, and the data was normalised to allow comparison between experiments. The normalised data was analysed with […] regression analysis in GraphPad Prism 5.02 (GraphPad Software, La Jolla, CA) assuming one-site specific binding.

[2] = test system: angiotensin-converting enzyme 2 (ACE2); assay: ACE2 inhibition screening kit (fluorometric); type: biochemical; conditions: 10, 100 and 500 nM; 15 min pre-incubation at room temperature, read every 60 s for 60 min, ex/em 320/420 nm; n = 3-6-4 (hepcidin-25), 3-6-3 (hepcidin-5)
Procedure: as §1
as §2, with “control. The fluorophore labelled substate was cleaved by the enzyme.” for “control.”
(§3) Mean enzyme inhibitory activities with the standard error of means were calculated at different concentrations. […]

human renin = assay: Bio-layer interferometry, hepcidin-renin binding; conditions: biotinylated renin on sensors; analyte 12.5-100 μM; ForteBio Octet RED384, PBS pH 7.2 and 150 mM NaCl, 27°C; association 0–1200 s, dissociation 1200–2000 s
Procedure: Human prorenin coding gene was ordered from GeneArt in pcDNA3.1(+) as fusion protein with a C-terminal His-tag. The pcDNA3.1 vector confers ampicillin resistance. Plasmid was dissolved in 50 μl of TE-EF and the amount of 100 ng was transferred into Escherichia coli TOP10 cells (Invitrogen, UK) with the heat shock method (30 s). In the next day colonies were picked for midiprep isolation. A single colony was picked and cultured in 5 ml media supplemented with 100 μg/ml ampicillin and 5 mM glucose for 7 hours after which it is moved to 200 ml LB media, which included ampicillin and glucose, and grown overnight at 37°C 220 rpm. The plasmid DNA was isolated using Nucleobond Xtra Midi Plus EF Kit (Macherey-Nagel, #7404220). Plasmid DNA produced was endotoxin-free. Human prorenin was then produced in ExpiCHO cells.
Cell pellet was re-suspended in 20 ml buffer (50 mM Hepes, 200 mM NaCl, 10% Glycerol, 1 mM TCEP, pH 7.5) and protease inhibitor tablet was added. Cell lysis was made with sonicator (1 min, 50%, 2 sec on/5 sec off cycle). […]
Biotinylation of renin was done using NHS-PEG4-Biotin (ThermoFisher Scientific) at 1:1 molar ratio. […] Concentration of biotinylated protein was measured using NanoDrop™ One Uv-Vis spectrophotometer (ThermoFisher Scientific). […]
as §3

| Substance | ACE1 inhibitory activity (strongest) ([1]; 500 nM, 15 min pre-incubation at 37°C, read every 60 s for 100 min at 37°C, ex/em 330/430 nm, n = 6) [%] | Mean inhibitory effect on renin activity (renin; 10 nM peptide, n = 2) [%] | Mean inhibitory effect on renin activity (renin; 100 nM peptide, n = 3) [%] | Mean inhibitory effect on renin activity (renin; 500 nM peptide, n = 3) [%] | Renin inhibition (in words) (renin) | ACE1 inhibition (in words) ([1]; 10, 100 and 500 nM, 37°C, n = 5-6-1 for hepcidin-25) | ACE2 inhibition (in words) [2] | Binding to renin (association and dissociation curves, in words) (human renin) |
| --- | --- | --- | --- | --- | --- | --- | --- | --- |
| Asp-Thr-His-Phe-Pro [hepcidin-5, N-terminal part of hepcidin, synthetized by Proteogenix] | 34.8 | 50.1 | 50.0 | 58.6 | stronger effect on renin than hepcidin-25 |  |  |  |
| hepcidin-25: human hepcidin-25/LEAP-1 (disulfide bonds between Cys7–Cys23, Cys10–Cys13, Cys11–Cys19, and Cys14–Cys22), purchased from Peptides International |  | 20.4 | 29.2 | 38.3 | has an inhibitory effect on renin in vitro; also recorded: can bind to renin enzyme and inhibit its activity in vitro; also recorded: can bind to the active site of renin and inhibit its activity in vitro | not inhibited remarkably; also recorded: low inhibitory activity | not inhibited remarkably | concentration dependent |
| hepcidin-20: control peptide, purchased from Pepnet; truncated isoform without N-terminal hepcidin-5 (ICIFCCGCCHRSKCGMCCKT; ends and bridges not checked; cysteine pairing not given here; UniProt P81172 65-84, looked up) |  |  |  |  |  |  |  | cannot bind to renin |
